Patent publication US7332495B2 (priority 2002, dated 2008)
Like-named read-outs stand apart in the source and are kept apart here. Marks after values point to notes of the source that are not given here.

Experiments:
Kunming mice [1] = experiment: Mice writhing model (acetic acid); type: in vivo; settings: for ED50: po, Mice, Acetic acid Writhing, read-out: Analgesia ED50
Description: Kunming mice were used, with a male-female ratio of 50-50%. The test compound is administered i.p. (20 mg/Kg body weight) to the test groups, and physiological saline is administered P.O. (20 ml/Kg body weight) to the control group. After 30 minutes, acetic acid (0.7%, […] i.p.) was injected and the number of writhes was observed during a 5-minute period after acetic acid administration. The inhibition ratio of the writhing threshold was calculated. The alternating current tube is used to record the spontaneous activities for measuring sedation.
(§1) Two species of animals (mice and rats) and four types of pain testing models (i.p. 0.7% acetic acid, s.c. 5% formalin, hot plate 55° C., focused radiant heat) were used.

rat [2] = experiment: animal or person; settings: for ED50 / responders at 20 mg/kg: Rattus norvegicus; for ED50: po, read-out: Analgesia ED50; for responders at 20 mg/kg: ip
Description: Using 55° C. hot plate pain threshold detector (available from Ninghai Baishi Electronic Medical Instrument Co., Zheijiang, China) the threshold change before and after administration of a pharmaceutical composition of the present invention is tested. […] hind paw was scrubbed with alcohol cotton ball before the experiment. The regular pain threshold was tested twice for each rat, the induced hind paw licking time being recorded as the pain threshold. Measurements were made at 20-30 minute intervals. Only rats with stable pain reaction were used in the pharmaceutical test.
as §1

Mice [3] = experiment: Mice 55° C. hot plate; type: in vivo; settings: Mus musculus, po, read-out: Analgesia ED50
Description: as §1

Mice [4] = experiment: Jumping test in mice (Narcan precipitated); type: in vivo; settings: Morphine group
Description: Sixty-four mice were divided into 4 groups (16 for each group, ? fifty-fifty) Morphine, IV-12-1 (75 mg/Kg) IV-12-2 (100 mg/Kg) and saline were administrated respectively 3 times per day for 7 days with progressive dose increase. On the 7th day, Narcan is injected (i.p. 2 mg/kg) to precipitate withdrawal. The number of times for the mice to jump was recorded and the incidence of the jump calculated.

rats [5] = experiment: Precipitated withdrawal test in rats; type: in vivo; settings: Morphine group
Description: 48 rats were divided into 4 groups (12 for each group, ? fifty-fifty). Morphines IV-12-1 (75 mg/Kg), IV-12-2 (100 mg/Kg) and saline, was administered respectively using progressive dose increase for 14 days and 3 times per day. On the 15th day, Narcan is injected (i.p. 4 mg/kg) to precipitate withdrawal. The withdrawal syndrome was observed and the rats wre weighed at 30, 60 and 120 minutes after the injection respectively.

rats [6] = experiment: Spontaneous withdrawal tests (body weight); type: in vivo; settings: Morphine group
Description: 96 mice were divided into 4 groups (24 for each group, ? fifty-fifty), and Morphine, IV-12-1, IV-12-2, warm boiled water were administered respectively, using progressive dose increase for 7 days (i.g.) and 2 times per day. The weight of the rats after drug withdrawal was compared with the weight one day before drug withdrawal at a corresponding time (See Table 9 and 10).

rats [7] = experiment: Conditional position preference in rats; settings: Morphine group, i.g.
Text: A commercially available device for testing (Med Associates Inc.) was used. Measurements were automatically recorded by a computer.
The data are indicated by means of […], t-test was employed to compare the data in different groups. The rats were divided randomly into groups by weight, 12 for each group. They were positive control groups. […] The experiments were divided into stages of accommodation, training and test. Accommodation: Open the doors between black box and grey box and the door between white box and grey box. put the rats in from the grey box; let them run free in the training box for 15 minutes for 4 days. Training: The white box is with medicine while the black one is without it. The period training is 10 days, the first day with the medicine while the second day not; the third day with the medicine while the fourth day not, so on and so forth. When carrying out the training with medicine, 15 minutes after the rat is administrated (i.g.) with medicine, it is put into the white box for 30 minutes. When the training is without medicine, 15 minutes after the rat is administrated (i.g.) with saline, it is put into the black box for 30 minutes. Test: On the 11th day, the rat is put into the training box, with the door open. The time the rat stays in each box, and the number of time it enters during 15 minutes were determined, and the percentage of the time staying in the white box to the time together in white box and black box is calculated (Table 12).

rat [8] = experiment: Rat tail flick model (focused radiant heat); type: in vivo; settings: po, read-out: Analgesia ED50
rats [9] = experiment: Spontaneous withdrawal tests (body weight); type: in vivo; settings: Morphine group; remark: listed apart in the source
Kunming mice [10] = experiment: Sedation: spontaneous activities recorded with alternating current tube; type: in vivo
Description: Kunming mice were used, with a male-female ratio of 50-50%. […] After 30 minutes, acetic acid (0.7%, […] i.p.) was injected and the number of writhes was observed during a 5-minute period after acetic acid administration. The inhibition ratio of the writhing threshold was calculated. The alternating current tube is used to record the spontaneous activities for measuring sedation.

rat [11] = experiment: Rat tail flick model (focused radiant heat); type: in vivo
Description: A 8.75 mm-projecting lamp (12 v, 50 w) was used to give out focused radiant heat. The terminal 3 cm of the tail is exposed to the heat. The intensity of the focused radiant heat is regulated by a transformer to ensure that the time required to elicit a tail flick response is within 3-5 seconds. The rat's pain threshold is pre-tested for 2-3 times; and only animals with stable reactions were used in the pharmaceutical test. The test substance is taken orally 20 mg/kg. The number of rats whose increase in time for eliciting a tail flick response is by 100% or more at the peak of the drug action (30-45 minutes after administration) is used to calculate analgesic effect.
as §1

[12] = Summary of all three algogenic models; type: in vivo; settings: in words
Text: All the compounds mentioned above have profound for further value development.

Structure (SMILES): CN1CC[C@]23c4c5ccc(O)c4O[C@H]2[C@@H](O)C=C[C@H]3[C@H]1C5 [Morphine, reference compound]
- ED50 (Kunming mice [1]; Mus musculus): 6.8 mg/kg
- ED50 (rat [2]): 107 mg/kg
- ED50 (Mice [3]): 7.7 mg/kg
- Incidence for jump (%) (Mice [4]): 87.5* %
- Times for jump (IV ± SD) (Mice [4]; 3 times per day for 7 days, Narcan i.p. 2 mg/kg): 68 ± 43
- Percent of the lost weight (IV ± SD) (rats [5]; 30 min after Narcan): −5.1 ± 0.7
- Percent of the lost weight (IV ± SD) (rats [5]; 60 min after Narcan): −5.9 ± 1.0
- Percent of the lost weight (IV ± SD) (rats [5]; 120 min after Narcan): −7.0 ± 0.7
- Abstinence syndrome (IV ± SD) (rats [5]; 14 days, Narcan i.p. 4 mg/kg): 9.2 ± 2.8
- Increase (%) of weight (rats [6]; 114 h after withdrawal): −4.7%
- Weight (rats [6]; 144 h after withdrawal): 282.0 ± 41 g
- Weight after withdrawal compared with weight one day before withdrawal (rats [6]; ♀, 114 h after withdrawal): 0.97 ± 0.03
- Weight after withdrawal compared with weight one day before withdrawal (rats [6]; ♂, 18 h after withdrawal): 0.97 ± 0.04
- Percent in the medicine box (%) (rats [7]): 62.0 ± 8.0 %
- ED50 (rat [8]): 23.3 mg/kg
- Greatest decrease of weight after drug withdrawal (rats [9]): 10%
- Increase (%) of weight (rats [9]; 12 h after withdrawal): −0.5%
- Weight (rats [9]; 12 h after withdrawal): 284.7 ± 40 g
- Increase (%) of weight (rats [9]; 18 h after withdrawal): −3.2%
- Weight (rats [9]; 18 h after withdrawal): 276.9 ± 39 g
- Increase (%) of weight (rats [9]; 24 h after withdrawal): −6.4%
- Weight (rats [9]; 24 h after withdrawal): 267.9 ± 37 g
- Increase (%) of weight (rats [9]; 36 h after withdrawal): −8.2%
- Weight (rats [9]; 36 h after withdrawal): 262.7 ± 37 g
- Increase (%) of weight (rats [9]; 42 h after withdrawal): −9.7%
- Weight (rats [9]; 42 h after withdrawal): 258.4 ± 35 g
- Increase (%) of weight (rats [9]; 48 h after withdrawal): −10.2%
- Weight (rats [9]; 48 h after withdrawal): 257.0 ± 33 g
- Increase (%) of weight (rats [9]; 60 h after withdrawal): −10.3%
- Weight (rats [9]; 60 h after withdrawal): 256.6 ± 31 g
- Increase (%) of weight (rats [9]; 66 h after withdrawal): −10.5%
- Weight (rats [9]; 66 h after withdrawal): 256.0 ± 34 g
- Increase (%) of weight (rats [9]; 72 h after withdrawal): −9.0%
- Weight (rats [9]; 72 h after withdrawal): 260.4 ± 36 g
- Increase (%) of weight (rats [9]; 84 h after withdrawal): −6.1%
- Weight (rats [9]; 84 h after withdrawal): 268.7 ± 37 g
- Increase (%) of weight (rats [9]; 90 h after withdrawal): −7.5%
- Weight (rats [9]; 90 h after withdrawal): 264.7 ± 37 g
- Increase (%) of weight (rats [9]; 96 h after withdrawal): −6.0%
- Weight (rats [9]; 96 h after withdrawal): 269.0 ± 40 g
- Increase (%) of weight (rats [9]; 108 h after withdrawal): −3.0%
- Weight (rats [9]; 108 h after withdrawal): 277.6 ± 38 g
- Weight (rats [9]; 114 h after withdrawal): 272.9 ± 38 g
- Increase (%) of weight (rats [9]; 120 h after withdrawal): −3.8%
- Weight (rats [9]; 120 h after withdrawal): 275.4 ± 40 g
- Increase (%) of weight (rats [9]; 132 h after withdrawal): −0.5%
- Weight (rats [9]; 132 h after withdrawal): 284.6 ± 38 g
- Increase (%) of weight (rats [9]; 138 h after withdrawal): −2.4%
- Weight (rats [9]; 138 h after withdrawal): 279.3 ± 38 g
- Increase (%) of weight (rats [9]; 144 h after withdrawal): −1.5%
- Increase (%) of weight (rats [9]; 156 h after withdrawal): 1.7%
- Weight (rats [9]; 156 h after withdrawal): 291.0 ± 40 g
- Increase (%) of weight (rats [9]; 162 h after withdrawal): −0.6%
- Weight (rats [9]; 162 h after withdrawal): 284.2 ± 40 g
- Increase (%) of weight (rats [9]; 168 h after withdrawal): 0.1%
- Weight (rats [9]; 168 h after withdrawal): 286.5 ± 42 g
- Weight (rats [9]; before withdraw): 286.2 ± 40 g
- Weight after withdrawal compared with weight one day before withdrawal (rats [9]; ♀, 18 h after withdrawal): 0.98 ± 0.03
- Weight after withdrawal compared with weight one day before withdrawal (rats [9]; ♀, 42 h after withdrawal): 0.92 ± 0.02
- Weight after withdrawal compared with weight one day before withdrawal (rats [9]; ♀, 66 h after withdrawal): 0.91 ± 0.02
- Weight after withdrawal compared with weight one day before withdrawal (rats [9]; ♀, 90 h after withdrawal): 0.94 ± 0.02
- Weight after withdrawal compared with weight one day before withdrawal (rats [9]; ♀, 138 h after withdrawal): 1.00 ± 0.03
- Weight after withdrawal compared with weight one day before withdrawal (rats [9]; ♀, 162 h after withdrawal): 1.01 ± 0.03
- Weight after withdrawal compared with weight one day before withdrawal (rats [9]; ♂, 42 h after withdrawal): 0.91 ± 0.03
- Weight after withdrawal compared with weight one day before withdrawal (rats [9]; ♂, 66 h after withdrawal): 0.90 ± 0.03
- Weight after withdrawal compared with weight one day before withdrawal (rats [9]; ♂, 90 h after withdrawal): 0.94 ± 0.03
- Weight after withdrawal compared with weight one day before withdrawal (rats [9]; ♂, 114 h after withdrawal): 0.97 ± 0.03
- Weight after withdrawal compared with weight one day before withdrawal (rats [9]; ♂, 138 h after withdrawal): 0.99 ± 0.04
- Weight after withdrawal compared with weight one day before withdrawal (rats [9]; ♂, 162 h after withdrawal): 1.01 ± 0.04

Structure (SMILES): CC(=O)Nc1ccc(O)cc1 [Paracetamol, reference compound]
- ED50 (Kunming mice [1]; Mus musculus): 132 mg/kg
- ED50 (rat [2]): 4320 mg/kg
- ED50 (rat [8]): > 5000 mg/kg

Structure (SMILES): O=C(CN1CCN(CCc2ccccc2)CC1)c1ccccc1 [IV-14, N^1-phenethyl-N^4-phenacyl piperazine]
- Writhing (K i) (Kunming mice [1]; 20 mg/kg, Table 5 summary): 94
- inhibition in vivo at 20 mg/kg (Kunming mice [1]; Mus musculus, ip, i.p. 20 mg/Kg, acetic acid 0.7% i.p. after 30 minutes, writhes in 5 minutes, read-out: Analgesia (inhibition ratio of writhing)): 94%
- Sedation (writhing model) (Kunming mice [10]; 20 mg/kg, Table 5 summary): 92
- inhibition in vivo at 20 mg/kg (Kunming mice [10]; Mus musculus, ip, i.p. 20 mg/Kg, spontaneous activities): 92%
- Increase (hot plate) (%) (rat [2]; 20 mg/kg, Table 5 summary): 100%
- responders at 20 mg/kg (rat [2]; read-out: Analgesic ratio (Increase by 100%)): 100%
- responders at 20 mg/kg (rat [2]; read-out: Analgesic ratio (More than 60 seconds)): 70%
- Increase (tail flick) (%) (rat [11]; 20 mg/kg, Table 5 summary): 37.9%
- change in vivo at 20 mg/kg (rat [11]; Rattus norvegicus, po, orally 20 mg/kg, read-out: increase (%) of tail flick time): 37.9%
- After (s) tail flick time (rat [11]; orally 20 mg/kg, 30-45 minutes after administration): 10.62 s
- Analgesic effect on all three algogenic models [12]: powerful analgesic effects
- Sedative effect on all three algogenic models [12]: rather significant sedative effect
